Patent publication US8952024B2, “Herbicidal pyrimidone derivatives” (E I du Pont de Nemours and Company, priority 2009, dated 2015)

What was measured:
Format in all cases: in vivo
[1] = tested on: bermudagrass (Cynodon dactylon); experiment: Test B pre-/postemergence plant response
How it was run: (§1)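 Ratings reflect visual comparison with untreated controls 13 to 15 days after application, from 0 (no effect) to 100 (complete control). Application was preemergence to seeded loam/sand soil or postemergence to 1- to 4-leaf plants, with compound in a non-phytotoxic, surfactant-containing solvent.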

[2] = tested on: cocklebur (Xanthium strumarium); experiment: Test B pre-/postemergence plant response
How it was run: as §1

[3] = tested on: goosegrass (Eleusine indica); experiment: Test B pre-/postemergence plant response
How it was run: as §1

[4] = tested on: green foxtail (Setaria viridis); experiment: Test B pre-/postemergence plant response
How it was run: as §1

[5] = tested on: lambsquarters (Chenopodium album); experiment: Test B pre-/postemergence plant response
How it was run: as §1

[6] = tested on: large crabgrass (Digitaria sanguinalis); experiment: Test B pre-/postemergence plant response
How it was run: as §1

[7] = tested on: morningglory (Ipomoea coccinea); experiment: Test B pre-/postemergence plant response
How it was run: as §1

[8] = tested on: wheat (Triticum aestivum); experiment: Test B pre-/postemergence plant response
How it was run: as §1

[9] = tested on: wild oat (Avena fatua); experiment: Test B pre-/postemergence plant response
How it was run: as §1

[10] = tested on: yellow nutsedge (Cyperus esculentus); experiment: Test B pre-/postemergence plant response
How it was run: as §1

[11] = tested on: barnyardgrass (Echinochloa crus-galli); experiment: Test B flooded paddy test; settings: for Plant response rating, Barnyardgrass: Flood (flooded paddy test), 13 to 15 days
How it was run: (§2)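 Rice, umbrella sedge, ducksalad and barnyardgrass were grown to the 2-leaf stage, flooded to 3 cm, and compound was applied directly to the paddy water, with that depth kept throughout. After 13 to 15 days in the greenhouse, plants were visually rated against controls on a 0 (no effect) to 100 (complete control) scale.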

[12] = tested on: umbrella sedge (Cyperus difformis); experiment: Test B flooded paddy test; settings: for Plant response rating, Sedge, Umbrella: Flood (flooded paddy test), 13 to 15 days
How it was run: as §2

[13] = 250 g ai/ha, Preemergence, 0 to 100 scale
[14] = Postemergence, 62 g ai/ha, scale 0 (no effect) to 100 (complete control), 13 to 15 days
[15] = Postemergence, 125 g ai/ha, visual rating after 13 to 15 days, scale 0 (no effect) to 100 (complete control)
[16] = Postemergence, 250 g ai/ha, scale 0 to 100 (0 no effect, 100 complete control)
[17] = Preemergence, 31 g ai/ha, scale 0 to 100 (0 no effect, 100 complete control)
[18] = Preemergence, 62 g ai/ha, scale 0 to 100 (0 no effect, 100 complete control)
[19] = Preemergence, 125 g ai/ha, scale 0 to 100, 0 no effect, 100 complete control
[20] = 31 g ai/ha, postemergence, scale 0 to 100, 0 is no effect, 100 is complete control
[21] = 250 g ai/ha, flooded paddy test, visual rating on 0 to 100 scale (0 no effect, 100 complete control) after 13 to 15 days
[22] = 31 g ai/ha, scale of 0 to 100 where 0 is no effect and 100 is complete control
[23] = 62 g ai/ha, scale of 0 to 100 where 0 is no effect and 100 is complete control
[24] = 125 g ai/ha, scale 0 to 100, 0 is no effect, 100 is complete control

With `CCCCc1ncc(C(=O)C2=C(O)CCCC2=O)c(=O)n1-c1cccc(C)c1` [Compound 63] the “Plant response rating, Bermudagrass” value [1, 13] was 98, the “Plant response rating, Bermudagrass” value [1, 14] was 85 and the “Plant response rating, Bermudagrass” value [1, 15] was 85. The “Plant response rating, Bermudagrass” value [1, 16] was 95, the “Plant response rating, Bermudagrass” value [1, 17] was 75 and the “Plant response rating, Bermudagrass” value [1, 18] was 98. For the same molecule, the “Plant response rating, Bermudagrass” value [1, 19] was 98, the “Plant response rating, Cocklebur” value [2, 20] was 65 and the “Plant response rating, Cocklebur” value [2, 13] was 10. The “Plant response rating, Cocklebur” value [2, 14] was 80, the “Plant response rating, Cocklebur” value [2, 15] was 90 and the “Plant response rating, Cocklebur” value [2, 16] was 95. For the same molecule, the “Plant response rating, Cocklebur” value [2, 17] was 0, the “Plant response rating, Cocklebur” value [2, 18] was 0 and the “Plant response rating, Cocklebur” value [2, 19] was 0. The “Plant response rating, Goosegrass” value [3, 20] was 70, the “Plant response rating, Goosegrass” value [3, 13] was 100 and the “Plant response rating, Goosegrass” value [3, 14] was 70. The “Plant response rating, Goosegrass” value [3, 15] was 70, the “Plant response rating, Goosegrass” value [3, 16] was 75 and the “Plant response rating, Goosegrass” value [3, 17] was 90. The “Plant response rating, Goosegrass” value [3, 18] was 98, the “Plant response rating, Goosegrass” value [3, 19] was 100 and the “Plant response rating, Foxtail, Green” value [4, 20] was 60. For the same molecule, the “Plant response rating, Foxtail, Green” value [4, 13] was 30, the “Plant response rating, Foxtail, Green” value [4, 14] was 70 and the “Plant response rating, Foxtail, Green” value [4, 15] was 70. For the same molecule, the “Plant response rating, Foxtail, Green” value [4, 16] was 90, the “Plant response rating, Foxtail, Green” value [4, 17] was 0 and the “Plant response rating, Lambsquarters” value [5, 13] was 100. For the same molecule, the “Plant response rating, Lambsquarters” value [5, 14] was 95, the “Plant response rating, Lambsquarters” value [5, 15] was 98 and the “Plant response rating, Lambsquarters” value [5, 16] was 98. For the same molecule, the “Plant response rating, Lambsquarters” value [5, 17] was 98, the “Plant response rating, Lambsquarters” value [5, 18] was 98 and the “Plant response rating, Lambsquarters” value [5, 19] was 100. For the same molecule, the “Plant response rating, Crabgrass, Large” value [6, 20] was 70, the “Plant response rating, Crabgrass, Large” value [6, 13] was 100 and the “Plant response rating, Crabgrass, Large” value [6, 14] was 75. For the same molecule, the “Plant response rating, Crabgrass, Large” value [6, 15] was 80, the “Plant response rating, Crabgrass, Large” value [6, 16] was 90 and the “Plant response rating, Crabgrass, Large” value [6, 17] was 50. For the same molecule, the “Plant response rating, Crabgrass, Large” value [6, 18] was 85, the “Plant response rating, Crabgrass, Large” value [6, 19] was 100 and the “Plant response rating, Morningglory” value [7, 14] was 70. For the same molecule, the “Plant response rating, Morningglory” value [7, 15] was 75, the “Plant response rating, Morningglory” value [7, 16] was 75 and the “Plant response rating, Morningglory” value [7, 17] was 0. For the same molecule, the “Plant response rating, Morningglory” value [7, 18] was 0, the “Plant response rating, Morningglory” value [7, 19] was 0 and the “Plant response rating, Wheat” value [8, 20] was 0. For the same molecule, the “Plant response rating, Wheat” value [8, 14] was 0, the “Plant response rating, Wheat” value [8, 15] was 0 and the “Plant response rating, Wheat” value [8, 16] was 10. For the same molecule, the “Plant response rating, Wheat” value [8, 17] was 0, the “Plant response rating, Wheat” value [8, 18] was 0 and the “Plant response rating, Wheat” value [8, 19] was 0. For the same molecule, the “Plant response rating, Oat, Wild” value [9, 20] was 0, the “Plant response rating, Oat, Wild” value [9, 14] was 0 and the “Plant response rating, Oat, Wild” value [9, 15] was 5. For the same molecule, the “Plant response rating, Oat, Wild” value [9, 16] was 20, the “Plant response rating, Oat, Wild” value [9, 17] was 0 and the “Plant response rating, Oat, Wild” value [9, 18] was 0. For the same molecule, the “Plant response rating, Oat, Wild” value [9, 19] was 0, the “Plant response rating, Nutsedge, Yellow” value [10, 20] was 20 and the “Plant response rating, Nutsedge, Yellow” value [10, 14] was 20. The “Plant response rating, Nutsedge, Yellow” value [10, 15] was 50, the “Plant response rating, Nutsedge, Yellow” value [10, 16] was 60 and the “Plant response rating, Nutsedge, Yellow” value [10, 17] was 10. The “Plant response rating, Nutsedge, Yellow” value [10, 18] was 15, the “Plant response rating, Nutsedge, Yellow” value [10, 19] was 25 and the “Plant response rating, Flood, Barnyardgrass” value [11, 21] was 10. The “Plant response rating, Barnyardgrass” value [11, 22] was 0, the “Plant response rating, Barnyardgrass” value [11, 23] was 0 and the “Plant response rating, Barnyardgrass” value [11, 24] was 0. The “Plant response rating, Flood, Sedge, Umbrella” value [12, 21] was 0, the “Plant response rating, Sedge, Umbrella” value [12, 22] was 0 and the “Plant response rating, Sedge, Umbrella” value [12, 23] was 0. For the same molecule, the “Plant response rating, Sedge, Umbrella” value [12, 24] was 0.
